Source: PMC3268748, “A novel cold-active β-D-galactosidase from the Paracoccus sp. 32d - gene cloning, purification and characterization” (Microbial Cell Factories, 2011)
Read-outs that look alike come from different tables or passages of the source.

Target: T1, BgaL; Paracoccus sp. 32d β-D-galactosidase (Paracoccus sp. 32d, UniProt D1LZK0)
T1 construct: E. coli LMG194, pBAD/Myc-His A with native stop codon (no tag), ion exchange purified; homodimer 161 kDa; GH2
T1 sequence (D1LZK0 1-731): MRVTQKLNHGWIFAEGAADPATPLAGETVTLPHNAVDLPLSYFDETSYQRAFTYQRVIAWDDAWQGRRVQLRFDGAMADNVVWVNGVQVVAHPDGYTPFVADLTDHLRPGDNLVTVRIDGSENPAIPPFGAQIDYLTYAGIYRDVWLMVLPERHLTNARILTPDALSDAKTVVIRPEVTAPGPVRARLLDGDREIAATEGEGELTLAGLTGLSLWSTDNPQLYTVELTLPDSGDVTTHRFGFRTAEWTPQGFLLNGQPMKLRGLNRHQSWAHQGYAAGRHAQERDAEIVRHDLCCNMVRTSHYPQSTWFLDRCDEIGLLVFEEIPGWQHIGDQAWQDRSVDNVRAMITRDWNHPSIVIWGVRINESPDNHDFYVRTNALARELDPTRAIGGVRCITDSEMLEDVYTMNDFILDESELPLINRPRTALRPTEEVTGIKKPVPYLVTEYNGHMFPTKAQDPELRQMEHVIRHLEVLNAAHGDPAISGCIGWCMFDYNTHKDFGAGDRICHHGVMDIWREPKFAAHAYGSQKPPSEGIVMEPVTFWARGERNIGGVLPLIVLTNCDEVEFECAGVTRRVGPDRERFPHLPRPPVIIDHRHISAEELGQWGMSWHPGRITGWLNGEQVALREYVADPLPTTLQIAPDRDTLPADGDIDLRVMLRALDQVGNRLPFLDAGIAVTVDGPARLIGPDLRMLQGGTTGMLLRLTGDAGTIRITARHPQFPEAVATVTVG
Assay: relative activity with added sugar
Assay type: biochemical

activity at 100000 µM (read-out: Relative activity (%) / Galactose) [%] | activity at 100000 µM (read-out: Relative activity (%) / Glucose) [%] | SMILES
52 ± 1 |  | OC[C@H]1OC(O)[C@H](O)[C@@H](O)[C@H]1O (some centres unmarked) [galactose]
 | 38 ± 2 | OC[C@H]1OC(O)[C@H](O)[C@@H](O)[C@@H]1O (some centres unmarked) [glucose]
